Tests used:
[1] = target: T1, Mcl-1/Bim interaction, recombinant human Mcl-1 (171-327) (Homo sapiens, UniProt Q07820); assay: Cell free Mcl-1: Bim Affinity Assay (Mcl-1 HTRF); format: binding; settings: cell free Mcl-1:Bim TR-FRET, recombinant human Mcl-1 (171-327)
T1 construct: made in house
Procedure, shortened: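 TR-FRET competition assay with biotinylated human Bim peptide (residues 51-76); reaction plates incubated overnight before reading. IC50 values came from duplicate data fitted to a four-parameter sigmoidal competition curve.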

[2] = tested on: OPM-2 human multiple myeloma cell line; assay: Cell Viability Assay (OPM-2 10 FBS); format: cell-based; settings: OPM-2 cells, 16 h, CellTiter-Glo
Procedure, shortened: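 ATP-based luminescence (CellTiter-Glo) measured after a 16 h compound treatment of OPM-2 cells seeded at 3000 cells/well in 10% FBS medium. IC50 values derived by 4-parameter logistic fitting of serial dilutions.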

T1 sequence (Q07820 171-327): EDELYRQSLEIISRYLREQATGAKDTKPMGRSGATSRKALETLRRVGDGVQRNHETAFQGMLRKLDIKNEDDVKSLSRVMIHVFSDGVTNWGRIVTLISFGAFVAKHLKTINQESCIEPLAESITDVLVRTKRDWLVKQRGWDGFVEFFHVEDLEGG

Row | IC50 ([2]; Homo sapiens, OPM-2, 16 h) [µM] | SMILES | IC50 [1] [µM] | IC50 [2] [µM]
1 | – | CC(C)OC(=O)CC1C(C)CC=CC(O)C2CCC2CN2CC3(CCCc4cc(Cl)ccc43)COc3ccc(cc32)C(=O)NS1(=O)=O (single isomer, unassigned) [Example 566] | 0.000383 | 0.282
2 | – | CC(C)OC(=O)CC1C(C)CC=CC(O)C2CCC2CN2CC3(CCCc4cc(Cl)ccc43)COc3ccc(cc32)C(=O)NS1(=O)=O (single isomer, unassigned) [Example 567] | 0.00369 | 4.51
3 | – | CO[C@H]1C/C=C/[C@H](O)[C@@H]2CC[C@H]2CN2C[C@@]3(CCCc4cc(Cl)ccc43)COc3ccc(cc32)C(=O)NS(=O)(=O)[C@@H]1CC1CC1 (single isomer, unassigned) [Example 574] | 0.000393 | 0.188
4 | – | CO[C@H]1C/C=C/[C@H](O)[C@@H]2CC[C@H]2CN2C[C@@]3(CCCc4cc(Cl)ccc43)COc3ccc(cc32)C(=O)NS(=O)(=O)[C@@H]1CC1CC1 (single isomer, unassigned) [Example 575] | 0.00321 | 2.07
5 | – | COC(=O)CC1C(C)CC=CC(OC)C2CCC2CN2CC3(CCCc4cc(Cl)ccc43)COc3ccc(cc32)C(=O)NS1(=O)=O (single isomer, unassigned) [Example 576] | 0.000382 | 0.221
6 | 8.49 | NC(=O)OC[C@@H]1CC/C=C/[C@H](O)[C@@H]2CC[C@H]2CN2C[C@@]3(CCCc4cc(Cl)ccc43)COc3ccc(cc32)C(=O)NS1(=O)=O (single isomer, unassigned) [Example 611] | 0.000275 | –
7 | 15.2 | NC(=O)OC[C@@H]1CC/C=C\[C@H](O)[C@@H]2CC[C@H]2CN2C[C@@]3(CCCc4cc(Cl)ccc43)COc3ccc(cc32)C(=O)NS1(=O)=O (single isomer, unassigned) [Example 612] | 0.000362 | –
8 | 1.54 | N#CCC[C@@H]1CC/C=C/[C@H](O)[C@@H]2CC[C@H]2CN2C[C@@]3(CCCc4cc(Cl)ccc43)COc3ccc(cc32)C(=O)NS1(=O)=O (single isomer, unassigned) [Example 613] | 0.000329 | –
9 | – | N#CCC[C@H]1CC/C=C/[C@H](O)[C@@H]2CC[C@H]2CN2C[C@@]3(CCCc4cc(Cl)ccc43)COc3ccc(cc32)C(=O)NS1(=O)=O (single isomer, unassigned) [Example 614] | 0.00113 | 8.07
10 | – | CO[C@H]1/C=C/CC[C@@H](CC(C)(C)OC)S(=O)(=O)NC(=O)c2ccc3c(c2)N(C[C@@H]2CC[C@H]21)C[C@@]1(CCCc2cc(Cl)ccc21)CO3 (single isomer, unassigned) [Example 615] | 0.000696 | 0.643
11 | – | CO[C@H]1/C=C/CC[C@@H](CCO)S(=O)(=O)NC(=O)c2ccc3c(c2)N(C[C@@H]2CC[C@H]21)C[C@@]1(CCCc2cc(Cl)ccc21)CO3 (single isomer, unassigned) [Example 617] | 0.00022 | 11.5
12 | – | CN(C)C(=O)CC[C@@H]1CC/C=C/[C@H](O)[C@@H]2CC[C@H]2CN2C[C@@]3(CCCc4cc(Cl)ccc43)COc3ccc(cc32)C(=O)NS1(=O)=O (single isomer, unassigned) [Example 618] | 0.000172 | 0.607
13 | – | COC(=O)CC1CCC=CC(O)C2CCC2CN2CC3(CCCc4cc(Cl)ccc43)COc3ccc(cc32)C(=O)NS1(=O)=O (single isomer, unassigned) [Example 619] | 0.000187 | 0.401
14 | – | CN(C)C(=O)C[C@@H]1CC/C=C/[C@H](O)[C@@H]2CC[C@H]2CN2C[C@@]3(CCCc4cc(Cl)ccc43)COc3ccc(cc32)C(=O)NS1(=O)=O (single isomer, unassigned) [Example 621] | 0.000225 | 3.67
15 | – | CO[C@H]1/C=C/CCC(CCC(=O)N(C)C)S(=O)(=O)NC(=O)c2ccc3c(c2)N(C[C@@H]2CC[C@H]21)C[C@@]1(CCCc2cc(Cl)ccc21)CO3 (single isomer, unassigned) [Example 622] | 0.000224 | 0.257
16 | – | CN(C)S(=O)(=O)N1CCN(C(=O)CC[C@@H]2CC/C=C/[C@H](O)[C@@H]3CC[C@H]3CN3C[C@@]4(CCCc5cc(Cl)ccc54)COc4ccc(cc43)C(=O)NS2(=O)=O)CC1 (single isomer, unassigned) [Example 626] | 0.000305 | 2.2
17 | – | CN(C)S(=O)(=O)N1CCN(C(=O)C[C@@H]2CC/C=C/[C@H](O)[C@@H]3CC[C@H]3CN3C[C@@]4(CCCc5cc(Cl)ccc54)COc4ccc(cc43)C(=O)NS2(=O)=O)CC1 (single isomer, unassigned) [Example 631] | 0.000298 | 2.53
18 | 0.878 | Cc1nnc(CCC2CCC=CC(O)C3CCC3CN3CC4(CCCc5cc(Cl)ccc54)COc4ccc(cc43)C(=O)NS2(=O)=O)o1 (single isomer, unassigned) [Example 632] | 0.000187 | –
19 | – | O=C1NS(=O)(=O)C(Cc2ccc(Br)cc2)CCC=CC(O)C2CCC2CN2CC3(CCCc4cc(Cl)ccc43)COc3ccc1cc32 (single isomer, unassigned) [Example 633] | 0.0231 | 17.8

Row | IC50 ([2]; Homo sapiens, OPM-2, 16 h) [µM] | SMILES | IC50 [1] [µM] | IC50 [2] [µM]
20 | 0.131 | COC1CC=CC(O)C2CCC2CN2CC3(CCCc4cc(Cl)ccc43)COc3ccc(cc32)C(=O)NS(=O)(=O)C1CC1CCCO1 (single isomer, unassigned) [Example 638] | 0.000243 | –
21 | 0.282 | COC1C=CCC(OC)C(CC2CCCO2)S(=O)(=O)NC(=O)c2ccc3c(c2)N(CC2CCC21)CC1(CCCc2cc(Cl)ccc21)CO3 (single isomer, unassigned) [Example 641] | 0.000537 | –
22 | – | COC1C=CCC(OC)C(CC2CCCO2)S(=O)(=O)NC(=O)c2ccc3c(c2)N(CC2CCC21)CC1(CCCc2cc(Cl)ccc21)CO3 (single isomer, unassigned) [Example 642] | 0.000539 | 0.351
23 | 0.151 | CO[C@H]1C/C=C/[C@H](O)[C@@H]2CC[C@H]2CN2C[C@@]3(CCCc4cc(Cl)ccc43)COc3ccc(cc32)C(=O)NS(=O)(=O)[C@@H]1CC(C)C (single isomer, unassigned) [Example 643] | 0.000337 | –
24 | – | CO[C@H]1C/C=C/[C@H](OCCN2CCOCC2)[C@@H]2CC[C@H]2CN2C[C@@]3(CCCc4cc(Cl)ccc43)COc3ccc(cc32)C(=O)NS(=O)(=O)[C@@H]1C[C@@H]1CCCO1 (single isomer, unassigned) [Example 645] | 0.000589 | 0.125
25 | – | O=C1NS(=O)(=O)[C@H](Cc2ccccc2)C/C=C/[C@H](O)[C@@H]2CC[C@H]2CN2C[C@@]3(CCCc4cc(Cl)ccc43)COc3ccc1cc32 (single isomer, unassigned) [Example 646] | 0.0453 | 23.7
26 | 0.154 | CC1CC=CC(O)C2CCC2CN2CC3(CCCc4cc(Cl)ccc43)COc3ccc(cc32)C(=O)NS(=O)(=O)C1Cc1ccccc1 (single isomer, unassigned) [Example 648] | 0.00145 | –
27 | – | COC[C@H](O)C[C@@H]1CC/C=C/[C@H](OC)[C@@H]2CC[C@H]2CN2C[C@@]3(CCCc4cc(Cl)ccc43)COc3ccc(cc32)C(=O)NS1(=O)=O (single isomer, unassigned) [Example 651] | 0.000316 | 0.229
28 | – | COC[C@H](O)C[C@@H]1CC/C=C/[C@H](OC)[C@@H]2CC[C@H]2CN2C[C@@]3(CCCc4cc(Cl)ccc43)COc3ccc(cc32)C(=O)NS1(=O)=O (single isomer, unassigned) [Example 652] | 0.00239 | 4.46
29 | – | C[C@H]1C/C=C/[C@H](O)[C@@H]2CC[C@H]2CN2C[C@@]3(CCCc4cc(Cl)ccc43)COc3ccc(cc32)C(=O)NS(=O)(=O)[C@@H]1c1ccccc1 (single isomer, unassigned) [Example 653] | 0.000722 | 0.371
30 | – | C[C@H]1C/C=C/[C@H](O)[C@@H]2CC[C@H]2CN2C[C@@]3(CCCc4cc(Cl)ccc43)COc3ccc(cc32)C(=O)NS(=O)(=O)[C@@H]1c1ccccc1 (single isomer, unassigned) [Example 654] | 0.0076 | 3.51
31 | 0.259 | COCC(O)CC1CCC=CC(OC)C2CCC2CN2CC3(CCCc4cc(Cl)ccc43)COc3ccc(cc32)C(=O)NS1(=O)=O (single isomer, unassigned) [Example 658] | 0.000285 | –
32 | – | COC[C@@H](O)C[C@@H]1CC/C=C/[C@H](OC)[C@@H]2CC[C@H]2CN2C[C@@]3(CCCc4cc(Cl)ccc43)COc3ccc(cc32)C(=O)NS1(=O)=O (single isomer, unassigned) [Example 659] | 0.00337 | 10.9
33 | 3.11 | CC1CC=CC(O)C2CCC2CN2CC3(CCCc4cc(Cl)ccc43)COc3ccc(cc32)C(=O)NS(=O)(=O)C1CC(F)(F)F (single isomer, unassigned) [Example 663] | 0.000312 | –
34 | – | C[C@H]1C/C=C/[C@H](O)[C@@H]2CC[C@H]2CN2C[C@@]3(CCCc4cc(Cl)ccc43)COc3ccc(cc32)C(=O)NS(=O)(=O)N1Cc1ccccn1 (single isomer, unassigned) [Example 667] | 0.000244 | 0.378
35 | 11.6 | CC1CC=CC(O)C2CCC2CN2CC3(CCCc4cc(Cl)ccc43)COc3ccc(cc32)C(=O)NS(=O)(=O)N1Cc1ccccn1 (single isomer, unassigned) [Example 668] | 0.017 | –
36 | – | COCCO[C@H]1/C=C/C[C@H](C)[C@@H](CC(F)(F)F)S(=O)(=O)NC(=O)c2ccc3c(c2)N(C[C@@H]2CC[C@H]21)C[C@@]1(CCCc2cc(Cl)ccc21)CO3 (single isomer, unassigned) [Example 669] | 0.00137 | 0.272
37 | – | COCCO[C@H]1/C=C/C[C@H](C)[C@H](c2ccccc2)S(=O)(=O)NC(=O)c2ccc3c(c2)N(C[C@@H]2CC[C@H]21)C[C@@]1(CCCc2cc(Cl)ccc21)CO3 (single isomer, unassigned) [Example 670] | 0.00248 | 1

From patent US12091425B2 (AMGEN INC., priority 2016, dated 2024)
